# Results from ChEMBL document CHEMBL5444388, “Affinity Phenotypic Cellular Literature for EUbOPEN Chemogenomic Library” (2024).
# Experiments:
# Assay type in all cases: functional, cell-based
# Design in all cases: recommended concentration 100 nM
# [1] = biological target: Centromere-associated protein E (Homo sapiens) (UniProt Q02224); test: Affinity Phenotypic Cellular interaction: (Cell-growth inhibition assays (growth inhibitory effect colon cancer cell line YAPC)) EUB0000734a CENPE; settings: Affinity Phenotypic Cellular Source Knowledge https://pubmed.ncbi.nlm.nih.gov/20167803/
# [2] = biological target: Centromere-associated protein E (Homo sapiens) (UniProt Q02224); test: Affinity Phenotypic Cellular interaction: (Cell-growth inhibition assays (growth inhibitory effect colon cancer cell line SK-NEP-1)) EUB0000734a CENPE; settings: Affinity Phenotypic Cellular Source Knowledge https://pubmed.ncbi.nlm.nih.gov/20167803/
# [3] = biological target: Centromere-associated protein E (Homo sapiens) (UniProt Q02224); test: Affinity Phenotypic Cellular interaction: (Cell-growth inhibition assays (growth inhibitory effect colon cancer cell line A549)) EUB0000734a CENPE; settings: Affinity Phenotypic Cellular Source Knowledge https://pubmed.ncbi.nlm.nih.gov/20167803/
# [4] = biological target: Centromere-associated protein E (Homo sapiens) (UniProt Q02224); test: Affinity Phenotypic Cellular interaction: (Cell-growth inhibition assays (growth inhibitory effect colon cancer cell line BC-3)) EUB0000734a CENPE; settings: Affinity Phenotypic Cellular Source Knowledge https://pubmed.ncbi.nlm.nih.gov/20167803/
# [5] = biological target: Centromere-associated protein E (Homo sapiens) (UniProt Q02224); test: Affinity Phenotypic Cellular interaction: (Cell-growth inhibition assays (growth inhibitory effect colon cancer cell line HCC1143)) EUB0000734a CENPE; settings: Affinity Phenotypic Cellular Source Knowledge https://pubmed.ncbi.nlm.nih.gov/20167803/
# [6] = biological target: Centromere-associated protein E (Homo sapiens) (UniProt Q02224); test: Affinity Phenotypic Cellular interaction: (Cell-growth inhibition assays (growth inhibitory effect colon cancer cell line CCF-STTG1)) EUB0000734a CENPE; settings: Affinity Phenotypic Cellular Source Knowledge https://pubmed.ncbi.nlm.nih.gov/20167803/
# [7] = biological target: Centromere-associated protein E (Homo sapiens) (UniProt Q02224); test: Affinity Phenotypic Cellular interaction: (Cell-growth inhibition assays (growth inhibitory effect colon cancer cell line SW48)) EUB0000734a CENPE; settings: Affinity Phenotypic Cellular Source Knowledge https://pubmed.ncbi.nlm.nih.gov/20167803/
# [8] = biological target: Centromere-associated protein E (Homo sapiens) (UniProt Q02224); test: Affinity Phenotypic Cellular interaction: (Cell-growth inhibition assays (growth inhibitory effect colon cancer cell line RD)) EUB0000734a CENPE; settings: Affinity Phenotypic Cellular Source Knowledge https://pubmed.ncbi.nlm.nih.gov/20167803/
# [9] = biological target: Centromere-associated protein E (Homo sapiens) (UniProt Q02224); test: Affinity Phenotypic Cellular interaction: (Cell-growth inhibition assays (growth inhibitory effect colon cancer cell line U251)) EUB0000734a CENPE; settings: U-251, Affinity Phenotypic Cellular Source Knowledge https://pubmed.ncbi.nlm.nih.gov/20167803/
# [10] = biological target: Centromere-associated protein E (Homo sapiens) (UniProt Q02224); test: Affinity Phenotypic Cellular interaction: (Cell-growth inhibition assays (growth inhibitory effect colon cancer cell line HT-29)) EUB0000734a CENPE; settings: Affinity Phenotypic Cellular Source Knowledge https://pubmed.ncbi.nlm.nih.gov/20167803/
# [11] = biological target: Centromere-associated protein E (Homo sapiens) (UniProt Q02224); test: Affinity Phenotypic Cellular interaction: (Cell-growth inhibition assays (growth inhibitory effect colon cancer cell line SW-872)) EUB0000734a CENPE; settings: SW872, Affinity Phenotypic Cellular Source Knowledge https://pubmed.ncbi.nlm.nih.gov/20167803/
# [12] = biological target: Centromere-associated protein E (Homo sapiens) (UniProt Q02224); test: Affinity Phenotypic Cellular interaction: (Cell-growth inhibition assays (growth inhibitory effect colon cancer cell line Raji)) EUB0000734a CENPE; settings: Affinity Phenotypic Cellular Source Knowledge https://pubmed.ncbi.nlm.nih.gov/20167803/
# [13] = biological target: Centromere-associated protein E (Homo sapiens) (UniProt Q02224); test: Affinity Phenotypic Cellular interaction: (Cell-growth inhibition assays (growth inhibitory effect colon cancer cell line SF-295)) EUB0000734a CENPE; settings: Affinity Phenotypic Cellular Source Knowledge https://pubmed.ncbi.nlm.nih.gov/20167803/
# [14] = biological target: Centromere-associated protein E (Homo sapiens) (UniProt Q02224); test: Affinity Phenotypic Cellular interaction: (Cell-growth inhibition assays (growth inhibitory effect colon cancer cell line HEC-1-B)) EUB0000734a CENPE; settings: Affinity Phenotypic Cellular Source Knowledge https://pubmed.ncbi.nlm.nih.gov/20167803/
# [15] = biological target: Centromere-associated protein E (Homo sapiens) (UniProt Q02224); test: Affinity Phenotypic Cellular interaction: (Cell-growth inhibition assays (growth inhibitory effect colon cancer cell line A2780)) EUB0000734a CENPE; settings: Affinity Phenotypic Cellular Source Knowledge https://pubmed.ncbi.nlm.nih.gov/20167803/
# [16] = biological target: Centromere-associated protein E (Homo sapiens) (UniProt Q02224); test: Affinity Phenotypic Cellular interaction: (Cell-growth inhibition assays (growth inhibitory effect colon cancer cell line SW1990)) EUB0000734a CENPE; settings: Affinity Phenotypic Cellular Source Knowledge https://pubmed.ncbi.nlm.nih.gov/20167803/
# [17] = biological target: Centromere-associated protein E (Homo sapiens) (UniProt Q02224); test: Affinity Phenotypic Cellular interaction: (Cell-growth inhibition assays (growth inhibitory effect colon cancer cell line Caki-2)) EUB0000734a CENPE; settings: Affinity Phenotypic Cellular Source Knowledge https://pubmed.ncbi.nlm.nih.gov/20167803/
# [18] = biological target: Centromere-associated protein E (Homo sapiens) (UniProt Q02224); test: Affinity Phenotypic Cellular interaction: (Cell-growth inhibition assays (growth inhibitory effect colon cancer cell line BV-173)) EUB0000734a CENPE; settings: Affinity Phenotypic Cellular Source Knowledge https://pubmed.ncbi.nlm.nih.gov/20167803/
# [19] = biological target: Centromere-associated protein E (Homo sapiens) (UniProt Q02224); test: Affinity Phenotypic Cellular interaction: (Cell-growth inhibition assays (growth inhibitory effect lung cancer cell line MV522)) EUB0000734a CENPE; settings: MV-522, Affinity Phenotypic Cellular Source Knowledge https://pubmed.ncbi.nlm.nih.gov/20167803/
# [20] = biological target: Centromere-associated protein E (Homo sapiens) (UniProt Q02224); test: Affinity Phenotypic Cellular interaction: (Cell-growth inhibition assays (growth inhibitory effect colon cancer cell line DLD-1)) EUB0000734a CENPE; settings: Affinity Phenotypic Cellular Source Knowledge https://pubmed.ncbi.nlm.nih.gov/20167803/
# [21] = biological target: Centromere-associated protein E (Homo sapiens) (UniProt Q02224); test: Affinity Phenotypic Cellular interaction: (Cell-growth inhibition assays (growth inhibitory effect colon cancer cell line UACC-257)) EUB0000734a CENPE; settings: Affinity Phenotypic Cellular Source Knowledge https://pubmed.ncbi.nlm.nih.gov/20167803/
# [22] = biological target: Centromere-associated protein E (Homo sapiens) (UniProt Q02224); test: Affinity Phenotypic Cellular interaction: (Cell-growth inhibition assays (growth inhibitory effect colon cancer cell line Detroit562)) EUB0000734a CENPE; settings: Detroit 562, Affinity Phenotypic Cellular Source Knowledge https://pubmed.ncbi.nlm.nih.gov/20167803/
# [23] = biological target: Centromere-associated protein E (Homo sapiens) (UniProt Q02224); test: Affinity Phenotypic Cellular interaction: (Cell-growth inhibition assays (growth inhibitory effect colon cancer cell line SNU-475)) EUB0000734a CENPE; settings: Affinity Phenotypic Cellular Source Knowledge https://pubmed.ncbi.nlm.nih.gov/20167803/
# [24] = biological target: Centromere-associated protein E (Homo sapiens) (UniProt Q02224); test: Affinity Phenotypic Cellular interaction: (Cell-growth inhibition assays (growth inhibitory effect colon cancer cell line G-402)) EUB0000734a CENPE; settings: Affinity Phenotypic Cellular Source Knowledge https://pubmed.ncbi.nlm.nih.gov/20167803/
# [25] = biological target: Centromere-associated protein E (Homo sapiens) (UniProt Q02224); test: Affinity Phenotypic Cellular interaction: (Cell-growth inhibition assays (growth inhibitory effect colon cancer cell line A673)) EUB0000734a CENPE; settings: Affinity Phenotypic Cellular Source Knowledge https://pubmed.ncbi.nlm.nih.gov/20167803/
# [26] = biological target: Centromere-associated protein E (Homo sapiens) (UniProt Q02224); test: Affinity Phenotypic Cellular interaction: (Cell-growth inhibition assays (growth inhibitory effect colon cancer cell line HCT-8)) EUB0000734a CENPE; settings: Affinity Phenotypic Cellular Source Knowledge https://pubmed.ncbi.nlm.nih.gov/20167803/
# [27] = biological target: Centromere-associated protein E (Homo sapiens) (UniProt Q02224); test: Affinity Phenotypic Cellular interaction: (Cell-growth inhibition assays (growth inhibitory effect colon cancer cell line SF-268)) EUB0000734a CENPE; settings: Affinity Phenotypic Cellular Source Knowledge https://pubmed.ncbi.nlm.nih.gov/20167803/
# [28] = biological target: Centromere-associated protein E (Homo sapiens) (UniProt Q02224); test: Affinity Phenotypic Cellular interaction: (Cell-growth inhibition assays (growth inhibitory effect colon cancer cell line 786-O)) EUB0000734a CENPE; settings: 786-0, Affinity Phenotypic Cellular Source Knowledge https://pubmed.ncbi.nlm.nih.gov/20167803/
# [29] = biological target: Centromere-associated protein E (Homo sapiens) (UniProt Q02224); test: Affinity Phenotypic Cellular interaction: (Cell-growth inhibition assays (growth inhibitory effect colon cancer cell line SW1088)) EUB0000734a CENPE; settings: Affinity Phenotypic Cellular Source Knowledge https://pubmed.ncbi.nlm.nih.gov/20167803/
# [30] = biological target: Centromere-associated protein E (Homo sapiens) (UniProt Q02224); test: Affinity Phenotypic Cellular interaction: (Cell-growth inhibition assays (growth inhibitory effect colon cancer cell line CESS)) EUB0000734a CENPE; settings: Affinity Phenotypic Cellular Source Knowledge https://pubmed.ncbi.nlm.nih.gov/20167803/
# [31] = biological target: Centromere-associated protein E (Homo sapiens) (UniProt Q02224); test: Affinity Phenotypic Cellular interaction: (Cell-growth inhibition assays (growth inhibitory effect colon cancer cell line OVCAR-5)) EUB0000734a CENPE; settings: Affinity Phenotypic Cellular Source Knowledge https://pubmed.ncbi.nlm.nih.gov/20167803/
# [32] = biological target: Centromere-associated protein E (Homo sapiens) (UniProt Q02224); test: Affinity Phenotypic Cellular interaction: (Cell-growth inhibition assays (growth inhibitory effect colon cancer cell line 22Rv1)) EUB0000734a CENPE; settings: CWR22R, Affinity Phenotypic Cellular Source Knowledge https://pubmed.ncbi.nlm.nih.gov/20167803/
# [33] = biological target: Centromere-associated protein E (Homo sapiens) (UniProt Q02224); test: Affinity Phenotypic Cellular interaction: (Cell-growth inhibition assays (growth inhibitory effect sarcoma cancer cell line TE381.T)) EUB0000734a CENPE; settings: TE 381.T, Affinity Phenotypic Cellular Source Knowledge https://pubmed.ncbi.nlm.nih.gov/20167803/
# [34] = biological target: Centromere-associated protein E (Homo sapiens) (UniProt Q02224); test: Affinity Phenotypic Cellular interaction: (Cell-growth inhibition assays (growth inhibitory effect colon cancer cell line NCI/ADR-RES)) EUB0000734a CENPE; settings: Affinity Phenotypic Cellular Source Knowledge https://pubmed.ncbi.nlm.nih.gov/20167803/
# [35] = biological target: Centromere-associated protein E (Homo sapiens) (UniProt Q02224); test: Affinity Phenotypic Cellular interaction: (Cell-growth inhibition assays (growth inhibitory effect colon cancer cell line H4)) EUB0000734a CENPE; settings: Affinity Phenotypic Cellular Source Knowledge https://pubmed.ncbi.nlm.nih.gov/20167803/
# [36] = biological target: Centromere-associated protein E (Homo sapiens) (UniProt Q02224); test: Affinity Phenotypic Cellular interaction: (Cell-growth inhibition assays (growth inhibitory effect colon cancer cell line HCT-15)) EUB0000734a CENPE; settings: Affinity Phenotypic Cellular Source Knowledge https://pubmed.ncbi.nlm.nih.gov/20167803/
# [37] = biological target: Centromere-associated protein E (Homo sapiens) (UniProt Q02224); test: Affinity Phenotypic Cellular interaction: (Cell-growth inhibition assays (growth inhibitory effect colon cancer cell line C-4I)) EUB0000734a CENPE; settings: Affinity Phenotypic Cellular Source Knowledge https://pubmed.ncbi.nlm.nih.gov/20167803/
# [38] = biological target: Centromere-associated protein E (Homo sapiens) (UniProt Q02224); test: Affinity Phenotypic Cellular interaction: (Cell-growth inhibition assays (growth inhibitory effect colon cancer cell line HeLa)) EUB0000734a CENPE; settings: Affinity Phenotypic Cellular Source Knowledge https://pubmed.ncbi.nlm.nih.gov/20167803/
# Centromere-associated protein E (Homo sapiens), sequence (Q02224 whole entry): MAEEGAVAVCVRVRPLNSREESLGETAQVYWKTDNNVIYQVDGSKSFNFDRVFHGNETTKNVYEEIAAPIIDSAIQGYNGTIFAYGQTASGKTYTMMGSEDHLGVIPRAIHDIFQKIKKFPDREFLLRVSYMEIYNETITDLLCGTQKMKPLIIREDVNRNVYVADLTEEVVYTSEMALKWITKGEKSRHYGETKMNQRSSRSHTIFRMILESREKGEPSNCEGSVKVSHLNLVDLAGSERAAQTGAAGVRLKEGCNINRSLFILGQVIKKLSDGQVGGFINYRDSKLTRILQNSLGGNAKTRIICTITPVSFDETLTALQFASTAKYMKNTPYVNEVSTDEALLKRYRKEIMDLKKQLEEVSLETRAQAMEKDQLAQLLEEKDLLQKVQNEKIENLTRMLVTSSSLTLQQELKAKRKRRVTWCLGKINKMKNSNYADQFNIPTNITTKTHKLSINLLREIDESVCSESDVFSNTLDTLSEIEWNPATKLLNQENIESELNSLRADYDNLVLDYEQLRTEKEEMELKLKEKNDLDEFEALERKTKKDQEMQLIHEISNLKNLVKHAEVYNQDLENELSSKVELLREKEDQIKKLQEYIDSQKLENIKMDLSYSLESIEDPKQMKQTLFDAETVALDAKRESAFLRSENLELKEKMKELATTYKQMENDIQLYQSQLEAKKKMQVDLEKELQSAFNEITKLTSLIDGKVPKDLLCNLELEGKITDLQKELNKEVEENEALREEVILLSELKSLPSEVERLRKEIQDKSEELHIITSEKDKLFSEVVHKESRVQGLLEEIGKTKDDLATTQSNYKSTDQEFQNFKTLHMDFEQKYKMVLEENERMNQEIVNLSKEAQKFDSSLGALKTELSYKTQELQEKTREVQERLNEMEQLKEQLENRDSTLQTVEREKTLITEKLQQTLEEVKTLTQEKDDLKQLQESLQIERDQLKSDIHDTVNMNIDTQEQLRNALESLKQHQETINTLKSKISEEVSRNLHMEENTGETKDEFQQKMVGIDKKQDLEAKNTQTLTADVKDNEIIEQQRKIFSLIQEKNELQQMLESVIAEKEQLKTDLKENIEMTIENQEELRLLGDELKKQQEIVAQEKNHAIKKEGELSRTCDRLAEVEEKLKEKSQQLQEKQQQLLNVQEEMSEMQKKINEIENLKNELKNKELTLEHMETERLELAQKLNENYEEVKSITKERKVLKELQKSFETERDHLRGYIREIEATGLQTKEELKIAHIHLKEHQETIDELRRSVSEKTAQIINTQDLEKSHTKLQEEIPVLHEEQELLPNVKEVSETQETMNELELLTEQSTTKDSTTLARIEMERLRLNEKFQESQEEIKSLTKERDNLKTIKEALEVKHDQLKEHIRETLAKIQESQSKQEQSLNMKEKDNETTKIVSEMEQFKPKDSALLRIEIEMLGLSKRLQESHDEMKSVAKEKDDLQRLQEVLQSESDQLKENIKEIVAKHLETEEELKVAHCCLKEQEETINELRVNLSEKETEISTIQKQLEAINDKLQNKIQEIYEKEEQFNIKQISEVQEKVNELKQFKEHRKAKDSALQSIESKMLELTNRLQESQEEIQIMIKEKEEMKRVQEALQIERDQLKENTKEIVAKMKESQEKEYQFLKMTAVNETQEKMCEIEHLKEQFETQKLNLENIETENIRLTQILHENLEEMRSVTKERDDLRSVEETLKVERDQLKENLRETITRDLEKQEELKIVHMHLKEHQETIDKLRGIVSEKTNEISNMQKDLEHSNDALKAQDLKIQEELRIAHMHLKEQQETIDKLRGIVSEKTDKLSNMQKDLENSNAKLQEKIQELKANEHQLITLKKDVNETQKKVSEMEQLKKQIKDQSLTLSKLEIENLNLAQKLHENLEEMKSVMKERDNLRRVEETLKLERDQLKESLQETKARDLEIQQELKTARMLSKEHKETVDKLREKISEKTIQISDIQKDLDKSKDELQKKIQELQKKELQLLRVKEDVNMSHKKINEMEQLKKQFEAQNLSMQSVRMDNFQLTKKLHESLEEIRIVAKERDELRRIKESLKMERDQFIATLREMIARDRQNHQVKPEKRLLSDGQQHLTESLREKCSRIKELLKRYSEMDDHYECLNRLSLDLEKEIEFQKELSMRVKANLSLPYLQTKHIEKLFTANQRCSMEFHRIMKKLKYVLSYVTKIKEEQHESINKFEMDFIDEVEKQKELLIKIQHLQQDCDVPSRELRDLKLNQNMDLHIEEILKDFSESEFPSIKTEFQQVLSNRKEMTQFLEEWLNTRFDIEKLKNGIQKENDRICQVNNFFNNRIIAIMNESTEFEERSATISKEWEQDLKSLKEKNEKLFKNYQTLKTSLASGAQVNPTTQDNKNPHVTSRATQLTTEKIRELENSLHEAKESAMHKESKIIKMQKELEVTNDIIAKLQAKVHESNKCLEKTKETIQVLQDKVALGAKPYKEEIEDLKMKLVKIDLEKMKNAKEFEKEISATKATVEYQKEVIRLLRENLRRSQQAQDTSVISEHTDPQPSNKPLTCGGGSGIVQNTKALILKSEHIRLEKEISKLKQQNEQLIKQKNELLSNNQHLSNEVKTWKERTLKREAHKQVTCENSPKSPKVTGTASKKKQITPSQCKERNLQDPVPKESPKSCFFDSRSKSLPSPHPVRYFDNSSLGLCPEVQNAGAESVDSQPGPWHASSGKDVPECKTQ
structure (smiles),measurement,setting,value
CC(C)Oc1ccc(C(=O)N[C@H](CNC(=O)CN(C)C)Cc2ccc(-c3cn4cccc([C@H](C)O)c4n3)cc2)cc1Cl,GIC50,[1],59 nM
same,GIC50,[2],55 nM
same,GIC50,[3],21 nM
same,GIC50,[4],88 nM
same,GIC50,[5],27 nM
same,GIC50,[6],24 nM
same,GIC50,[7],25 nM
same,GIC50,[8],28 nM
same,GIC50,[9],26 nM
same,GIC50,[10],14 nM
same,GIC50,[11],37 nM
same,GIC50,[12],41 nM
same,GIC50,[13],35 nM
same,GIC50,[14],28 nM
same,GIC50,[15],13 nM
same,GIC50,[16],127 nM
same,GIC50,[17],25 nM
same,GIC50,[18],56 nM
same,GIC50,[19],48 nM
same,GIC50,[20],60 nM
same,GIC50,[21],32 nM
same,GIC50,[22],35 nM
same,GIC50,[23],26 nM
same,GIC50,[24],31 nM
same,GIC50,[25],23 nM
same,GIC50,[26],35 nM
same,GIC50,[27],26 nM
same,GIC50,[28],45 nM
same,GIC50,[29],32 nM
same,GIC50,[30],19 nM
same,GIC50,[31],34 nM
same,GIC50,[32],29 nM
same,GIC50,[33],27 nM
same,GIC50,[34],3.96 µM
same,GIC50,[35],31 nM
same,GIC50,[36],151 nM
same,GIC50,[37],42 nM
same,GIC50,[38],20 nM
